The conditions of data set [1]: mouse, in vivo. As for the experimental part:
(§1) A murine model of sclerodermatous cGVHD was initiated by adoptive transfer of T-cell depleted bone marrow plus whole splenocytes from B10.D2 donors into BALB/c recipients that were previously subjected to sub-lethal irradiation. Total bone marrow and irradiation only groups were included as controls. […] Body weight and clinical symptoms (appearance, activity, skin symptoms, diarrhea, conjunctivitis) were measured throughout the study. Immunophenotyping for B cells and T cells was performed on spleens collected from euthanized mice by flow cytometry at two timepoints (day 40 during treatment and on day 76 post-treatment). Levels of circulating immunoglobulins were measured by multiplex cytokine assay at both timepoints.
(§2) On day 40 (during treatment) and day 76 (post-treatment) groups of mice were euthanized for immunophenotyping analysis utilizing a 22-color flow cytometry panel. […] Scoring between 0-2 was assigned for each of the parameters (appearance, activity, skin symptoms, diarrhea, conjunctivitis) and totaled for each mouse.

A further data set concerns the target BTK (Homo sapiens, UniProt Q06187). The following applies: reversible, non-covalent; cited from earlier work.
A further data set deals with B cells and T cells. In words: Immunophenotyping of spleen B cells and T cells by flow cytometry in cGVHD mice. The data set is classed as in vivo, mouse (BALB/c recipients). The following applies: during treatment (day 40). As to the method:
as §1, §2

Data set [2] deals with murine model of sclerodermatous cGVHD. Kind of data set: Murine model of sclerodermatous cGVHD: clinical GVHD score and symptoms. The data set is classed as in vivo, mouse (BALB/c recipients, B10.D2 donors). As for the experimental part: as §1, §2
In another data set the target is T1, ITK (Homo sapiens, UniProt Q08881).
T1 sequence (Q08881 1-620): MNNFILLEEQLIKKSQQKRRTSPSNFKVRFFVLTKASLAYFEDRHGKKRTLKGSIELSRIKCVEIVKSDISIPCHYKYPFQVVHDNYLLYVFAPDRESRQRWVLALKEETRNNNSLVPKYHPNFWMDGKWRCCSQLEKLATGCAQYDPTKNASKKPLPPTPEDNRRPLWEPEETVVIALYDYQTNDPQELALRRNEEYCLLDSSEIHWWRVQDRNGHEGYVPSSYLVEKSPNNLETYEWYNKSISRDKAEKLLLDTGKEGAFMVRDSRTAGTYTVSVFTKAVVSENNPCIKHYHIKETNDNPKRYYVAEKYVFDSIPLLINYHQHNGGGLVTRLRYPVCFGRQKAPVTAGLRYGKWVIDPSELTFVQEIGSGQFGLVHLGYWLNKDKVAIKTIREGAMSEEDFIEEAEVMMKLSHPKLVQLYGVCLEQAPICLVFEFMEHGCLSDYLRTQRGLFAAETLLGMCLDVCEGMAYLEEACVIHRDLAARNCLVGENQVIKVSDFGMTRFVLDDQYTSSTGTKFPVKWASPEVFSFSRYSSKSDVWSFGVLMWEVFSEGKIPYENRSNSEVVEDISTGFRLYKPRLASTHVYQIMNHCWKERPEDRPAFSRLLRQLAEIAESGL
Particulars: ITK expressed in T cells; cited from earlier work.

The test system of data set [3] is circulating immunoglobulins. In words: Circulating immunoglobulins by multiplex cytokine assay in cGVHD mice. The data set is classed as in vivo, mouse (BALB/c recipients). Particulars: during and post treatment, compared to vehicle. As for the experimental part:
as §1

Each structure is given as a SMILES string.

We go through two molecules from patent publication US20260158033A1, “VECABRUTINIB FOR THE TREATMENT OF GRAFT-VERSUS-HOST DISEASE” (Viracta Therapeutics, Inc., priority 2021, published 2026).

Sequence of BTK (Q06187 whole entry, species assumed): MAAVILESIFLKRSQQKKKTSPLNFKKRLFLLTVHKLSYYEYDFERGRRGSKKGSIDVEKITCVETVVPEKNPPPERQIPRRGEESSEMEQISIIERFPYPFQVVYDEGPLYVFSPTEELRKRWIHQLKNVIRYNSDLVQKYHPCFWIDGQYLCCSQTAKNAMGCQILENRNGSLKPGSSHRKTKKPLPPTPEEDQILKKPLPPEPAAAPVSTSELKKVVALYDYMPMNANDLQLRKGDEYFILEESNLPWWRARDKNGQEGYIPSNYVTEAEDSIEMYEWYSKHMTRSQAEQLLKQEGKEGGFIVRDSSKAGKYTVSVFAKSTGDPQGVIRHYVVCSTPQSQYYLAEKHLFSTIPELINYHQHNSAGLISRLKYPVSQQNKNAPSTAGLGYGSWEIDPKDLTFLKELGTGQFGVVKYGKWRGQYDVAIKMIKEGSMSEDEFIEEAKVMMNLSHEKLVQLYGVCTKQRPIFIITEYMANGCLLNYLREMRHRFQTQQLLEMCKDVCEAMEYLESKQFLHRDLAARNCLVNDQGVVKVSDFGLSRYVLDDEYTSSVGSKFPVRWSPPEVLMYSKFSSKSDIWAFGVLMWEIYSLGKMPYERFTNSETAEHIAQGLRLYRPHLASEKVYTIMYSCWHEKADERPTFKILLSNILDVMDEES

With `C=CC(=O)N1CCC[C@@H](n2nc(-c3ccc(Oc4ccccc4)cc3)c3c(N)ncnc32)C1` [Ibrutinib, reference compound], in data set [1], the Body weight post-treatment result is listed as “recovered body weight” and the “Weight loss during treatment compared to vehicle” value is given as “slightly elevated”.

On to `NC(=O)[C@H]1CCN(c2ncnc(N)c2F)C[C@@H]1N1CCC[C@@H](Nc2cc(Cl)cc(C(F)(F)F)c2)C1=O` [Vecabrutinib, (3R,3′R,4'S)-1′-(6-amino-5-fluoropyrimidin-4-yl)-3-((3-chloro-5-(trifluoromethyl)phenyl)amino)-2-oxo-[1,3′-bipiperidine]-4′-carboxamide], for which the BTK inhibition entry on BTK is given as “potent”. Besides, in the data set with B cells and T cells, the “Activated and proliferating CD4+ and CD8+ T cells” value is listed as “reduced”; the B-cell activation entry is recorded as “reduced”; the B-cell proliferation result is “reduced”; the “CD4+ CXCR5+PD-1+ T follicular helper cells” value is “reduced”. Further, in the data set with B cells and T cells, the “CD4+CD25+ FoxP3+ Treg number” value is recorded as “reduced”; the “Cytotoxic granzyme-B+ CD8+ T cells” value was “reduced”; the “Expression of PD-1 on Tregs” value is “reduced”; the “Expression of antigen-presentation molecules CD80 and CD86 on B cells” value was “unchanged”. Moreover, in the data set on B cells and T cells, the “IL-4/5 secreted by B cells” value was “less”, the “IL-10 secreted by B cells” value is on record as “less”, the “Number of B220+CD138+ plasma cells” value is “reduced” and the “Numbers of cytokine secreting CD4+ cells” value was “globally reduced”. Further, in the data set on B cells and T cells, the “Th1/Th2 or Th17/Treg ratios” value is listed as “no differences”, the “Total B cell numbers” value is “retained” and the “Total CD3+ T cells” value was “reduced”. For the same molecule, the “Avg. Score Day 58” value in data set [2] (average clinical GVHD score, 0-2 per parameter (appearance, activity, skin symptoms, diarrhea, conjunctivitis) totaled, Day 58, vecabrutinib 50 mg/kg once daily oral gavage, ibrutinib 30 mg/kg in drinking water, day 27 to 45) turned out to be 2.50. For the same molecule, in data set [2] (average clinical GVHD score, 0-2 per parameter totaled, Day 66, vecabrutinib 50 mg/kg once daily oral gavage, ibrutinib 30 mg/kg in drinking water, day 27 to 45), the “Avg. Score Day 66” value amounted to 1.30. For the same molecule, in data set [2] (average clinical GVHD score, 0-2 per parameter totaled, Day 71, vecabrutinib 50 mg/kg once daily oral gavage, ibrutinib 30 mg/kg in drinking water, day 27 to 45), the “Avg. Score Day 71” value came out at 2.90. Further, the “Clinical symptoms (appearance, activity, skin irritation, redness, alopecia and diarrhea)” value in data set [2] (treated groups, vecabrutinib 50 mg/kg oral, ibrutinib 30 mg/kg drinking water) is reported as “significantly reduced”. Also, in data set [2] (vecabrutinib-treated group vs ibrutinib, small sample size), the “Clinical score overall compared to ibrutinib” value is listed as “trend toward a more favorable clinical score overall”. Besides, at ITK, the “Activity against ITK” value was “demonstrates activity”. In addition, in data set [1], the Body weight post-treatment result was “recovered body weight” and the “Weight loss during treatment compared to vehicle” value is given as “slightly elevated”. For the same molecule, the “Circulating levels of IgA” value in data set [3] is “reduced”.
